Results as given in patent US20080063668A1, “Nitroimidazole and terconazole composition and method” (priority 2006, published 2008).

How the values were obtained:
Assay in all cases: Inhibition of bacteria growth, drug dilution tubes, anaerobic
Assay type in all cases: cell-based
Set-up in all cases: key: (+) for growth; (−) for no growth; (±) for suboptimal growth after an initial observation of growth
[1] = test system: Bacteroides fragilis ATCC 25285
Protocol: (§1) Serial dilutions of tinidazole and terconazole were prepared by adding measured amounts of each substance to water (both individually and in combination). Seven bacterial organisms that are common pathogens in bacterial vaginosis were grown anaerobically in the medium as listed in Table 4 under a N2/H2/CO2 (85:5:10) head space atmosphere. [table] These cultures were diluted to a 0.5 McFarland standard prior to inoculation of drug dilution tubes. One (1) mL of the 0.5 McFarland preparation was inoculated to an anaerobically prepared test tube containing 0.8 mL of Difco anaerobic medium (DAMM) and 0.2 mL of appropriate diluted antimicrobial or antimicrobial combination for a total of 2 mL. The inoculated tubes were then incubated at 37° C. and monitored daily for growth. Growth was scored with a (+) for growth, (−) for no growth, and (±) for suboptimal growth after an initial observation of growth. Tinidazole is abbreviated as TNZ and terconazole is abbreviated as TER in Tables 5 through 11.

[2] = test system: Gardnerella vaginalis ATCC 14018
Protocol: as §1

[3] = test system: Mobiluncus curtisii var. holmesii ATCC 35242
Protocol: as §1

## CC(C)N1CCN(c2ccc(OCC3COC(Cn4cncn4)(c4ccc(Cl)cc4Cl)O3)cc2)CC1 (stereo not drawn) [TER, cis-1-[p[[2-(2,4-dichlorophenyl)-2-(1 H-1,2,4-triazol-1-ylmethyl)-1,3-dioxolan-4-yl]methoxy]phenyl]-4-isopropylpiperazine]
[1]; TER 3.1 μg/ml, DAY 1
  growth: (+)
[1]; TER 3.1 μg/ml, DAY 2
  growth: (+)
[1]; TER 3.1 μg/ml, DAY 3
  growth: (+)
[1]; TER 3.1 μg/ml, DAY 4
  growth: (+)
[1]; TER 3.1 μg/ml, DAY 5
  growth: (+)
[1]; TER 6.2 μg/ml, DAY 1
  growth: (+)
[1]; TER 6.2 μg/ml, DAY 2
  growth: (+)
[1]; TER 6.2 μg/ml, DAY 3
  growth: (+)
[1]; TER 6.2 μg/ml, DAY 4
  growth: (+)
[1]; TER 6.2 μg/ml, DAY 5
  growth: (+)
[1]; TER 12.5 μg/ml, DAY 1
  growth: (+)
[1]; TER 12.5 μg/ml, DAY 2
  growth: (+)
[1]; TER 12.5 μg/ml, DAY 3
  growth: (+)
[1]; TER 12.5 μg/ml, DAY 4
  growth: (+)
[1]; TER 12.5 μg/ml, DAY 5
  growth: (+)
[1]; TER 25 μg/ml, DAY 1
  growth: (+)
[1]; TER 25 μg/ml, DAY 2
  growth: (+)
[1]; TER 25 μg/ml, DAY 3
  growth: (+)
[1]; TER 25 μg/ml, DAY 4
  growth: (+)
[1]; TER 25 μg/ml, DAY 5
  growth: (+)
[1]; TER 50 μg/ml, DAY 1
  growth: (+)
[1]; TER 50 μg/ml, DAY 2
  growth: (+)
[1]; TER 50 μg/ml, DAY 3
  growth: (+)
[1]; TER 50 μg/ml, DAY 4
  growth: (+)
[1]; TER 50 μg/ml, DAY 5
  growth: (+)
[1]; TER 100 μg/ml, DAY 1
  growth: (+)
[1]; TER 100 μg/ml, DAY 2
  growth: (+)
[1]; TER 100 μg/ml, DAY 3
  growth: (+)
[1]; TER 100 μg/ml, DAY 4
  growth: (+)
[1]; TER 100 μg/ml, DAY 5
  growth: (+)
[1]; TER 200 μg/ml, DAY 1
  growth: (−)
[1]; TER 200 μg/ml, DAY 2
  growth: (−)
[1]; TER 200 μg/ml, DAY 3
  growth: (+)
[1]; TER 200 μg/ml, DAY 4
  growth: (+)
[1]; TER 200 μg/ml, DAY 5
  growth: (+)
[1]; TER 400 μg/ml, DAY 1
  growth: (−)
[1]; TER 400 μg/ml, DAY 2
  growth: (−)
[1]; TER 400 μg/ml, DAY 3
  growth: (−)
[1]; TER 400 μg/ml, DAY 4
  growth: (−)
[1]; TER 400 μg/ml, DAY 5
  growth: (−)
[1]; TER 800 μg/ml, DAY 1
  growth: (−)
[1]; TER 800 μg/ml, DAY 2
  growth: (−)
[1]; TER 800 μg/ml, DAY 3
  growth: (−)
[1]; TER 800 μg/ml, DAY 4
  growth: (−)
[1]; TER 800 μg/ml, DAY 5
  growth: (−)
[2]; TER 3.1 μg/ml, DAY 1
  growth: (+)
[2]; TER 3.1 μg/ml, DAY 2
  growth: (+)
[2]; TER 3.1 μg/ml, DAY 3
  growth: (+)
[2]; TER 3.1 μg/ml, DAY 4
  growth: (+)
[2]; TER 3.1 μg/ml, DAY 5
  growth: (+)
[2]; TER 6.2 μg/ml, DAY 1
  growth: (+)
[2]; TER 6.2 μg/ml, DAY 2
  growth: (+)
[2]; TER 6.2 μg/ml, DAY 3
  growth: (+)
[2]; TER 6.2 μg/ml, DAY 4
  growth: (+)
[2]; TER 6.2 μg/ml, DAY 5
  growth: (+)
[2]; TER 12.5 μg/ml, DAY 1
  growth: (+)
[2]; TER 12.5 μg/ml, DAY 2
  growth: (+)
[2]; TER 12.5 μg/ml, DAY 3
  growth: (+)
[2]; TER 12.5 μg/ml, DAY 4
  growth: (+)
[2]; TER 12.5 μg/ml, DAY 5
  growth: (+)
[2]; TER 25 μg/ml, DAY 1
  growth: (+)
[2]; TER 25 μg/ml, DAY 2
  growth: (+)
[2]; TER 25 μg/ml, DAY 3
  growth: (+)
[2]; TER 25 μg/ml, DAY 4
  growth: (+)
[2]; TER 25 μg/ml, DAY 5
  growth: (+)
[2]; TER 50 μg/ml, DAY 1
  growth: (+)
[2]; TER 50 μg/ml, DAY 2
  growth: (+)
[2]; TER 50 μg/ml, DAY 3
  growth: (+)
[2]; TER 50 μg/ml, DAY 4
  growth: (+)
[2]; TER 50 μg/ml, DAY 5
  growth: (+)
[2]; TER 100 μg/ml, DAY 1
  growth: (+)
[2]; TER 100 μg/ml, DAY 2
  growth: (+)
[2]; TER 100 μg/ml, DAY 3
  growth: (+)
[2]; TER 100 μg/ml, DAY 4
  growth: (+)
[2]; TER 100 μg/ml, DAY 5
  growth: (+)
[2]; TER 200 μg/ml, DAY 1
  growth: (−)
[2]; TER 200 μg/ml, DAY 2
  growth: (+)
[2]; TER 200 μg/ml, DAY 3
  growth: (+)
[2]; TER 200 μg/ml, DAY 4
  growth: (+)
[2]; TER 200 μg/ml, DAY 5
  growth: (+)
[2]; TER 400 μg/ml, DAY 1
  growth: (−)
[2]; TER 400 μg/ml, DAY 2
  growth: (−)
[2]; TER 400 μg/ml, DAY 3
  growth: (−)
[2]; TER 400 μg/ml, DAY 4
  growth: (−)
[2]; TER 400 μg/ml, DAY 5
  growth: (−)
[2]; TER 800 μg/ml, DAY 1
  growth: (−)
[2]; TER 800 μg/ml, DAY 2
  growth: (−)
[2]; TER 800 μg/ml, DAY 3
  growth: (−)
[2]; TER 800 μg/ml, DAY 4
  growth: (−)
[2]; TER 800 μg/ml, DAY 5
  growth: (−)
[3]; TER 3.1 μg/ml, DAY 1
  growth: (+)
[3]; TER 3.1 μg/ml, DAY 2
  growth: (+)
[3]; TER 3.1 μg/ml, DAY 3
  growth: (+)
[3]; TER 3.1 μg/ml, DAY 4
  growth: (+)
[3]; TER 3.1 μg/ml, DAY 5
  growth: (+)
[3]; TER 6.2 μg/ml, DAY 1
  growth: (+)
[3]; TER 6.2 μg/ml, DAY 2
  growth: (+)
[3]; TER 6.2 μg/ml, DAY 3
  growth: (+)
[3]; TER 6.2 μg/ml, DAY 4
  growth: (+)
[3]; TER 6.2 μg/ml, DAY 5
  growth: (+)
[3]; TER 12.5 μg/ml, DAY 1
  growth: (+)
[3]; TER 12.5 μg/ml, DAY 2
  growth: (+)
[3]; TER 12.5 μg/ml, DAY 3
  growth: (+)
[3]; TER 12.5 μg/ml, DAY 4
  growth: (+)
[3]; TER 12.5 μg/ml, DAY 5
  growth: (+)
[3]; TER 25 μg/ml, DAY 1
  growth: (+)
[3]; TER 25 μg/ml, DAY 2
  growth: (+)
[3]; TER 25 μg/ml, DAY 3
  growth: (+)
[3]; TER 25 μg/ml, DAY 4
  growth: (+)
[3]; TER 25 μg/ml, DAY 5
  growth: (+)
[3]; TER 50 μg/ml, DAY 1
  growth: (+)
[3]; TER 50 μg/ml, DAY 2
  growth: (+)
[3]; TER 50 μg/ml, DAY 3
  growth: (+)
[3]; TER 50 μg/ml, DAY 4
  growth: (+)
[3]; TER 50 μg/ml, DAY 5
  growth: (+)
[3]; TER 100 μg/ml, DAY 1
  growth: (+)
[3]; TER 100 μg/ml, DAY 2
  growth: (+)
[3]; TER 100 μg/ml, DAY 3
  growth: (+)
[3]; TER 100 μg/ml, DAY 4
  growth: (+)
[3]; TER 100 μg/ml, DAY 5
  growth: (+)
[3]; TER 200 μg/ml, DAY 1
  growth: (+)
[3]; TER 200 μg/ml, DAY 5
  growth: (+)
[3]; TER 400 μg/ml, DAY 1
  growth: (+)
[3]; TER 400 μg/ml, DAY 5
  growth: (+)
[3]; TER 800 μg/ml, DAY 1
  growth: (+)
[3]; TER 800 μg/ml, DAY 5
  growth: (+)
